In PubChem BioAssay (NCI):
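Where inhibition never reached the appropriate level, the endpoint shown equals the highest concentration tested. Otherwise, values were interpolated linearly from a five-concentration, 48-hour dose response in 96-well plates. TGI marks complete inhibition of growth.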

Tests used:
Test in all cases: inhibition of tumour cell growth, NCI panel, 48 h
[1] = system: SR leukemia
[2] = system: UO-31 renal
[3] = system: SNB-19 CNS
[4] = system: MDA-N
[5] = system: RXF 393 renal
[6] = system: U251 CNS
[7] = system: MCF7 breast
[8] = system: SK-MEL-5 melanoma
[9] = system: OVCAR-3 ovarian
[10] = system: A498 renal
[11] = system: NCI/ADR-RES ovarian
[12] = system: T-47D breast
[13] = system: SK-MEL-28 melanoma
[14] = system: NCI-H23 lung
[15] = system: SK-OV-3 ovarian
[16] = system: SF-539 CNS
[17] = system: DU-145 prostate
[18] = system: CCRF-CEM leukemia
[19] = system: 786-0 renal
[20] = system: UACC-257 melanoma
[21] = system: PC-3 prostate
[22] = system: MDA-MB-435
[23] = system: NCI-H522 lung
[24] = system: NCI-H226 lung
[25] = system: K-562 leukemia
[26] = system: MDA-MB-231 breast
[27] = system: IGROV1 ovarian
[28] = system: TK-10 renal
[29] = system: SK-MEL-2 melanoma
[30] = system: OVCAR-8 ovarian
[31] = system: BT-549 breast
[32] = system: HS 578T breast
[33] = system: HOP-62 NSCLC
[34] = system: SF-268 CNS
[35] = system: SW-620 colon
[36] = system: OVCAR-5 ovarian
[37] = system: CAKI-1 renal
[38] = system: HOP-92 NSCLC
[39] = system: M14 melanoma
[40] = system: EKVX NSCLC
[41] = system: OVCAR-4 ovarian
[42] = system: ACHN renal
[43] = system: SNB-75 CNS
[44] = system: KM12 colon
[45] = system: SF-295 CNS
[46] = system: HCT-15 colon
[47] = system: A549 NSCLC
[48] = system: RPMI-8226 leukemia
[49] = system: MALME-3M melanoma
[50] = system: MOLT-4 leukemia
[51] = system: NCI-H460 lung
[52] = system: HCC-2998 colon
[53] = system: HL-60(TB) leukemia
[54] = system: HT29 colon
[55] = system: SN12C renal
[56] = system: UACC-62 melanoma
[57] = system: COLO 205 colon
[58] = system: LOX IMVI melanoma
[59] = system: HCT-116 colon

Measured: TGI

[N-]=[N+]=NCC1OC(n2cnc3c(N)ncnc32)C2OC12 (centres undefined)
> 100 µM: all assays above
